Tests used:
[1] = tested on: T1, human STING CBD-CTT (152-379); experiment: Thermal shift assay (TSA) binding to purified STING
T1 construct: made in house; host or cells: E. coli BL21 DE3 RIPL Codon Plus
Excerpt: Purified STING protein was used as bait to identify binding compounds, using a thermal shift assay (TSA). A library containing 250,000 compounds (Enamine, Monmouth Jct., NJ) was surveyed. Compounds that bound to STING were then examined for their ability to inhibit STING signaling, see Examples 1-4 vide infra. In the presence of cytosolic DNA species, STING becomes activated to drive the transcription of cytokines such as type I IFN. Compounds binding to STING via TSA were subsequently examined for their ability prevent cytosolic DNA species from activating the type I interferon (IFN) promoter, using a live cell assay. This assay comprised immortalized human fibroblasts (hTERT) that were stably transfected with the type I IFN promoter driving luciferase as well as the CMV promoter driving SEAP (hTERT-pIFNβ-Glu). The ability of the small molecules to prevent activation of the type I IFN promoter and the transcription of luciferase, but not SEAP in response to cytosolic DNA species can be assessed. […]
Thermal High Throughput Screen: The denaturation profile of purified STING (STING152-379H) was calibrated using a fluorometer equipped with temperature control (a qPCR apparatus with 320 well capacity). […] Curves were measured for STING only and STING+small molecule, and ΔTm was calculated. […]

[2] = tested on: IFNβ expression (type I IFNβ promoter driving luciferase); experiment: IFNβ promoter luciferase assay in hTERT-pIFNβ-Glu cells transfected with ISD; type: cell-based, human
Method: Inhibition of IFNβ expression was measured by Luciferase induction at 24 hours after transfection of ISD, DMSO is shown (230), ISD treatment only (220) was used as a control, according to an embodiment of the invention;
Inhibition of IFNβ expression was measured by Luciferase induction at 24 hours after transfection of ISD, Mock is shown (210), ISD treatment only (220) was used as a control, according to an embodiment of the invention;
Identification of small molecule inhibitors of STING. In the presence of cytosolic DNA species, STING becomes activated to drive the transcription of cytokines such as type I IFN. Compounds binding to STING via TSA were subsequently examined for their ability to prevent cytosolic DNA species from activating the type I interferon (IFN) promoter, using a live cell assay. This assay comprised immortalized human fibroblasts (hTERT) that were stably transfected with the type I IFN promoter driving luciferase as well as the CMV promoter driving SEAP (hTERT-pIFNβ-Glu). The live cell assay has previously been disclosed in PCT/US2019/025380 entitled IFN-Beta Reporter System for Immortalized Primary Cells inventor Glen N. Barber, which was filed Apr. 2, 2018 and published as WO2019195285, and which is herein incorporated by reference in its entirety and for all purposes. The ability of the small molecules to prevent activation of the type I IFN promoter and the transcription of luciferase, but not SEAP in response to cytosolic DNA species was assessed. The activation of STING, typically by CDNs, in turn activates the transcription factors NF-κB and IRF3, both of which are required to induce the transcriptional stimulation of the Type I IFN promoter, but not the CMV promoter as IRF3 and NF-kB transcription factor binding sites are not contained in the CMV promoter. The assay identified the small molecule Compound W1 in the first screen (HTS), where the level of luciferase was not able to activate the type I IFN promoter or induce the expression of luciferase (see Table I and Table II).
Inhibition of IFNβ expression was measured by Luciferase induction at 24 hours after transfection of ISD. ISD only treatment was used as control.
Inhibition of IFNβ expression was measured by Luciferase induction at 24 hours after transfection of ISD, Mock is shown (210), ISD treatment only (220) was used as a control.
Luciferase assay: hTERT-BJ1 Telomerase Fibroblasts stably expressing the luciferase gene under the control of the interferon-beta promoter and SEAP gene under control of the CMV promoter) (hTERT-pIFNβ-Glu) were generated by the Barber laboratory. Luciferase assay was performed using Secrete-Pair Dual Luminescence Assay Kit from GeneCopoeia following the manufacturer's protocol.

In the case of Cc1cc([N+](=O)[O-])ccc1S(=O)(=O)Nc1nc2cc(C(F)(F)F)ccc2[nH]1 [Compound W1, 2-methyl-4-nitro-N-[5-(trifluoromethyl)-1H-1,3-benzodiazol-2-yl]benzene-1-sulfonamide], the “binding to STING” value [1] is reported as “binds to STING”, the “activation of the type I IFN promoter in response to cytosolic DNA (luciferase)” value ([2]; 50 μM, 24 hours, ISD 3 μg/ml, hTERT-pIFNβ-Glu cells) is reported as “inhibited activation of the type I IFN promoter” and the inhibition at 5 µM ([2]; Homo sapiens) is reported as 4%.

From patent publication US20240270737A1, “SMALL MOLECULAR INHIBITORS OF STING SIGNALING COMPOSITIONS AND METHODS OF USE” (STINGINN INC., priority 2021, published 2024)
